Laboratory results as given in PubChem BioAssay AID248 (DTP/NCI, 2004).
Several values for one entry are separate records, joined by “and”; a condition that tells them apart may be missing. Identical values can stand only once. Inconclusive results and toxic doses are left out.

Test system: L1210 leukemia ip in BDF1 mice, survival T/C
Assay: NCI In Vivo Anticancer Drug Screen. Data for tumor model L1210 Leukemia (intraperitoneal) in B6D2F1 (BDF1) mice
Conditions: endpoint: mean survival time, higher = longer survival
Outline: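 In this screen, tumor-bearing mice given compound are compared to those given vehicle, and their survival values are reported as a treated-to-control quotient.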

[1] = dose: 50.0 mg/kg/injection, schedule: Q01DX009 (ip), vehicle: saline with Tween-80
[2] = dose: 100.0 mg/kg/injection, schedule: Q01DX009 (ip), vehicle: saline with Tween-80
[3] = dose: 200.0 mg/kg/injection, schedule: Q01DX009 (ip), vehicle: saline with Tween-80
[4] = dose: 50.0 mg/kg/injection, schedule: Q01DX009 (ip), vehicle: saline
[5] = dose: 100.0 mg/kg/injection, schedule: Q01DX009 (ip), vehicle: saline
[6] = dose: 100.0 mg/kg/injection, schedule: Q04DX003 (ip), vehicle: saline with Tween-80
[7] = dose: 200.0 mg/kg/injection, schedule: Q04DX003 (ip), vehicle: saline with Tween-80
[8] = dose: 400.0 mg/kg/injection, schedule: Q01DX009 (ip), vehicle: saline with Tween-80
[9] = dose: 400.0 mg/kg/injection, schedule: Q04DX003 (ip), vehicle: saline with Tween-80
[10] = dose: 100.0 mg/kg/injection, schedule: Q01DX001 (ip), vehicle: saline
[11] = dose: 100.0 mg/kg/injection, schedule: Q04DX003 (ip), vehicle: Klucel (hydroxypropylcellulose) (HPC)
[12] = dose: 200.0 mg/kg/injection, schedule: Q01DX001 (ip), vehicle: saline
[13] = dose: 200.0 mg/kg/injection, schedule: Q04DX003 (ip), vehicle: Klucel (hydroxypropylcellulose) (HPC)
[14] = dose: 400.0 mg/kg/injection, schedule: Q01DX001 (ip), vehicle: saline
[15] = dose: 400.0 mg/kg/injection, schedule: Q04DX003 (ip), vehicle: Klucel (hydroxypropylcellulose) (HPC)
[16] = dose: 25.0 mg/kg/injection, schedule: Q04DX002 (ip), vehicle: Klucel (hydroxypropylcellulose) (HPC)
[17] = dose: 50.0 mg/kg/injection, schedule: Q04DX002 (ip), vehicle: Klucel (hydroxypropylcellulose) (HPC)

Q: With `CCC(=O)c1ccc(Cc2ccc(C(=O)CC)cc2)cc1` as the compound, how does the T/C (dose: 125.0 mg/kg/injection, schedule: Q01DX001 (ip), vehicle: saline) read?
A: 104 % of control

Q: What about the T/C (dose: 250.0 mg/kg/injection, schedule: Q01DX001 (ip), vehicle: saline) of the same compound?
A: 101 % of control

Q: And the T/C (dose: 500.0 mg/kg/injection, schedule: Q01DX001 (ip), vehicle: saline)?
A: 93 % of control

Q: What about the T/C (dose: 1000.0 mg/kg/injection, schedule: Q01DX001 (ip), vehicle: saline) of the same compound?
A: 98 % of control

Q: What does the source list for `CC12CCCC(O)C1(O)CC(C(=O)O)CC2` (centres undefined)?
A: T/C [1]: 100 % of control; T/C [2]: 96 % of control; T/C [3]: 96 % of control

Q: Which T/C [4] does the source give for `CC1CC1C(=O)Cl` (centres undefined) here?
A: 97 % of control

Q: What about the T/C [5] of the same compound?
A: 101 % of control

Q: Which T/C (dose: 20.0 mg/kg/injection, schedule: Q01DX009 (ip), vehicle: Klucel (hydroxypropylcellulose) (HPC)) does the source give for `Nc1nc(N)c2nc(COc3ccccc3)cnc2n1` here?
A: 98 % of control

Q: What about the T/C (dose: 40.0 mg/kg/injection, schedule: Q01DX009 (ip), vehicle: Klucel (hydroxypropylcellulose) (HPC)) of the same compound?
A: 107 % of control

Q: And the T/C (dose: 80.0 mg/kg/injection, schedule: Q01DX009 (ip), vehicle: Klucel (hydroxypropylcellulose) (HPC))?
A: 107 % of control

Q: What does the source list for `COCc1ncc2cnccn12`?
A: T/C (dose: 25.0 mg/kg/injection, schedule: Q01DX009 (ip), vehicle: saline): 90 % of control; T/C [4]: 103 % of control; T/C [5]: 98 % of control and 103 % of control and 91 % of control; T/C (dose: 200.0 mg/kg/injection, schedule: Q01DX009 (ip), vehicle: saline): 93 % of control

Q: `COC(=O)C1C(C)CCCC1(C)c1ccccc1` (centres undefined) was tested. Which T/C (dose: 100.0 mg/kg/injection, schedule: Q04DX002 (ip), vehicle: gum acacia) did it give?
A: 103 % of control

Q: What about the T/C (dose: 200.0 mg/kg/injection, schedule: Q04DX002 (ip), vehicle: gum acacia) of the same compound?
A: 106 % of control

Q: And the T/C (dose: 400.0 mg/kg/injection, schedule: Q04DX002 (ip), vehicle: gum acacia)?
A: 95 % of control

Q: Which T/C [1] does the source give for `S=c1nc(COc2ccccc2Cl)[nH][nH]1` here?
A: 106 % of control

Q: What about the T/C [2] of the same compound?
A: 100 % of control

Q: What about the T/C [6] of the same compound?
A: 98 % of control

Q: And the T/C [3]?
A: 97 % of control

Q: What about the T/C [7] of the same compound?
A: 102 % of control

Q: And the T/C [8]?
A: 98 % of control

Q: And the T/C [9]?
A: 96 % of control

Q: For `COc1ccc(C(=O)NCCBr)cc1[N+](=O)[O-]`, which T/C [10] is on record?
A: 108 % of control

Q: What about the T/C [11] of the same compound?
A: 97 % of control

Q: What about the T/C [12] of the same compound?
A: 103 % of control

Q: What about the T/C [13] of the same compound?
A: 101 % of control

Q: What about the T/C [14] of the same compound?
A: 98 % of control

Q: And the T/C [15]?
A: 111 % of control

Q: How did the T/C (dose: 12.5 mg/kg/injection, schedule: Q04DX002 (ip), vehicle: Klucel (hydroxypropylcellulose) (HPC)) turn out when `COc1ccc(OC)c(NC(=S)N/N=C(\C)c2cc(Cl)ccc2O)c1` was run?
A: 102 % of control

Q: And the T/C [16]?
A: 102 % of control

Q: And the T/C [17]?
A: 118 % of control

Q: Which results are given for `Cc1cc(C)c(Nc2n[nH]c(=S)s2)cc1C`?
A: T/C (dose: 100.0 mg/kg/injection, schedule: Q04DX002 (ip), vehicle: saline with Tween-80): 87 % of control; T/C (dose: 200.0 mg/kg/injection, schedule: Q04DX002 (ip), vehicle: saline with Tween-80): 92 % of control; T/C (dose: 400.0 mg/kg/injection, schedule: Q04DX002 (ip), vehicle: saline with Tween-80): 94 % of control

Q: How did the T/C (dose: 100.0 mg/kg/injection, schedule: Q01DX001 (ip), vehicle: saline with Tween-80) turn out when `CC1(C)N([O-])[N+](=O)C1(C)C` was run?
A: 97 % of control

Q: What about the T/C (dose: 200.0 mg/kg/injection, schedule: Q01DX001 (ip), vehicle: saline with Tween-80) of the same compound?
A: 101 % of control

Q: And the T/C (dose: 400.0 mg/kg/injection, schedule: Q01DX001 (ip), vehicle: saline with Tween-80)?
A: 101 % of control

Q: How did the T/C [2] turn out when `COc1ccc(/C=N/n2c(C)cc(C)c(C#N)c2=O)c(OC)c1OC` was run?
A: 100 % of control

Q: And the T/C [6]?
A: 118 % of control

Q: And the T/C [3]?
A: 91 % of control

Q: And the T/C [7]?
A: 103 % of control

Q: And the T/C [8]?
A: 107 % of control

Q: And the T/C [9]?
A: 106 % of control

Q: Which T/C (dose: 3.12 mg/kg/injection, schedule: Q04DX003 (ip), vehicle: saline) does the source give for `CCCC(=O)OCC1OC(n2cnc3c(=S)nc[nH]c32)C(OC(=O)CCC)C1OC(=O)CCC` (centres undefined) here?
A: 97 % of control

Q: And the T/C (dose: 6.25 mg/kg/injection, schedule: Q01DX009 (ip), vehicle: saline)?
A: 112 % of control

Q: And the T/C (dose: 6.25 mg/kg/injection, schedule: Q01DX Z (ip), vehicle: other)?
A: 117 % of control

Q: What about the T/C (dose: 6.25 mg/kg/injection, schedule: Q04DX003 (ip), vehicle: saline) of the same compound?
A: 113 % of control

Q: What about the T/C (dose: 8.36 mg/kg/injection, schedule: Q01DX009 (ip), vehicle: saline with Tween-80) of the same compound?
A: 122 % of control

Q: And the T/C (dose: 8.36 mg/kg/injection, schedule: Q04DX003 (ip), vehicle: saline with Tween-80)?
A: 107 % of control

Q: And the T/C (dose: 12.5 mg/kg/injection, schedule: Q01DX009 (ip), vehicle: saline)?
A: 122 % of control

Q: And the T/C (dose: 12.5 mg/kg/injection, schedule: Q04DX003 (ip), vehicle: saline with Tween-80)?
A: 114 % of control

Q: What about the T/C (dose: 12.5 mg/kg/injection, schedule: Q04DX003 (ip), vehicle: saline) of the same compound?
A: 118 % of control

Q: And the T/C (dose: 25.0 mg/kg/injection, schedule: Q01DX Z (ip), vehicle: other)?
A: 153 % of control

Q: And the T/C (dose: 25.0 mg/kg/injection, schedule: Q04DX003 (ip), vehicle: saline)?
A: 121 % of control

Q: What about the T/C (dose: 26.0 mg/kg/injection, schedule: Q01DX001 (ip), vehicle: saline) of the same compound?
A: 121 % of control

Q: What about the T/C (dose: 40.0 mg/kg/injection, schedule: Q01DX001 (ip), vehicle: saline) of the same compound?
A: 121 % of control

Q: And the T/C [4]?
A: 164 % of control

Q: And the T/C (dose: 50.0 mg/kg/injection, schedule: Q01DX Z (ip), vehicle: other)?
A: 89 % of control

Q: And the T/C (dose: 200.0 mg/kg/injection, schedule: Q04DX003 (ip), vehicle: saline)?
A: 123 % of control

Q: What about the T/C (dose: 300.0 mg/kg/injection, schedule: Q01DX001 (ip), vehicle: saline) of the same compound?
A: 151 % of control

Q: What about the T/C [14] of the same compound?
A: 121 % of control

Q: And the T/C (dose: 400.0 mg/kg/injection, schedule: Q01DX009 (ip), vehicle: saline)?
A: 100 % of control

Q: What about the T/C (dose: 400.0 mg/kg/injection, schedule: Q04DX003 (ip), vehicle: saline) of the same compound?
A: 105 % of control

Q: What does the source list for `CC(=O)NCCSC(=O)C(=O)SCCNC(C)=O`?
A: T/C (dose: 25.0 mg/kg/injection, schedule: Q01DX001 (ip), vehicle: saline): 115 % of control; T/C (dose: 25.0 mg/kg/injection, schedule: Q01DX Z (ip), vehicle: saline): 102 % of control; T/C (dose: 50.0 mg/kg/injection, schedule: Q01DX001 (ip), vehicle: saline): 102 % of control; T/C (dose: 50.0 mg/kg/injection, schedule: Q01DX Z (ip), vehicle: saline): 96 % of control; T/C [10]: 102 % of control; T/C (dose: 100.0 mg/kg/injection, schedule: Q01DX Z (ip), vehicle: saline): 96 % of control; T/C [12]: 94 % of control and 96 % of control and 104 % of control; T/C (dose: 450.0 mg/kg/injection, schedule: Q01DX001 (ip), vehicle: saline): 86 % of control

Q: Which T/C [11] does the source give for `C=C1C=C(c2ccccc2)N(C(=O)c2ccccc2I)CCN1C(=O)c1ccccc1I` here?
A: 114 % of control

Q: What about the T/C [13] of the same compound?
A: 89 % of control

Q: What about the T/C [15] of the same compound?
A: 94 % of control

Q: How did the T/C [16] turn out when `Cc1ccc(S(=O)(=O)OC2CN(S(C)(=O)=O)CC(OS(=O)(=O)c3ccc(C)cc3)CN(S(C)(=O)=O)C2)cc1` (centres undefined) was run?
A: 89 % of control

Q: And the T/C [17]?
A: 103 % of control

Q: What about the T/C (dose: 100.0 mg/kg/injection, schedule: Q04DX002 (ip), vehicle: Klucel (hydroxypropylcellulose) (HPC)) of the same compound?
A: 92 % of control

Q: What does the source list for `c1cc(N=NNc2cccc(C3=NCCN3)c2)cc(C2=NCCN2)c1`?
A: T/C (dose: 7.75 mg/kg/injection, schedule: Q01DX015 (ip), vehicle: water): 100 % of control; T/C (dose: 15.5 mg/kg/injection, schedule: Q01DX015 (ip), vehicle: water): 94 % of control; T/C (dose: 31.0 mg/kg/injection, schedule: Q01DX015 (ip), vehicle: water): 100 % of control; T/C (dose: 62.0 mg/kg/injection, schedule: Q01DX015 (ip), vehicle: water): 98 % of control

Q: Which T/C [11] does the source give for `C=C(C)C1CCC2CC/C(=N\Nc3ccccc3C(=O)OC)C=C2C1` (centres undefined) here?
A: 90 % of control

Q: And the T/C [13]?
A: 94 % of control

Q: `Cc1cc(N(C)c2ccccc2)nc(N)n1` was tested. Which T/C (dose: 25.0 mg/kg/injection, schedule: Q01DX Z (ip), vehicle: methylcellulose (MC)) did it give?
A: 96 % of control

Q: For `CCOC(CC)OCC`, which T/C [10] is on record?
A: 97 % of control

Q: And the T/C [12]?
A: 103 % of control

Q: And the T/C [14]?
A: 94 % of control

Q: `CCc1oc(=O)c2ccccc2c1-c1ccccc1` was tested. Which T/C [1] did it give?
A: 93 % of control

Q: What about the T/C [2] of the same compound?
A: 90 % of control

Q: What about the T/C [3] of the same compound?
A: 93 % of control
